From patent publication US10538497B2, “Compounds as indoleamine 2,3-dioxygenase inhibitors” (Merck Sharp & Dohme Corp., priority 2015, dated 2020) come the findings set out here.

Experiment [1] addresses T1, IDO1 (Homo sapiens (Human), UniProt P14902). The experiment can be described thus: IDO1 Cellular Assay in Frozen HEK293 Cells Transiently Transfected with Human IDO1. It is filed as cell-based. As to conditions: HEK293 cells transiently transfected with human IDO1; read-out: IDO1 HEK293 Cell Assay, IC50.
Experiment [2] deals with T1, IDO1. The experiment can be described thus: IDO1 Cellular Assay in Hela Cells Stimulated with IFNγ. As to conditions: Hela cells stimulated with IFNγ 100 ng/mL; read-out: IDO1 HELA Cell Assay, IC50. It is filed as cell-based.
The target of experiment [3] is T1, IDO1. Briefly: IDO1 Enzyme Assay. As to conditions: HIS-tagged recombinant IDO1, 40 nM.
The mark [4] stands for this setting: read-out: IDO1 Enzyme Assay, IC50.

The term IC50 denotes the point on the concentration scale where inhibition reaches its midpoint.

Each structure is given as a SMILES string.

T1 sequence (P14902 whole entry): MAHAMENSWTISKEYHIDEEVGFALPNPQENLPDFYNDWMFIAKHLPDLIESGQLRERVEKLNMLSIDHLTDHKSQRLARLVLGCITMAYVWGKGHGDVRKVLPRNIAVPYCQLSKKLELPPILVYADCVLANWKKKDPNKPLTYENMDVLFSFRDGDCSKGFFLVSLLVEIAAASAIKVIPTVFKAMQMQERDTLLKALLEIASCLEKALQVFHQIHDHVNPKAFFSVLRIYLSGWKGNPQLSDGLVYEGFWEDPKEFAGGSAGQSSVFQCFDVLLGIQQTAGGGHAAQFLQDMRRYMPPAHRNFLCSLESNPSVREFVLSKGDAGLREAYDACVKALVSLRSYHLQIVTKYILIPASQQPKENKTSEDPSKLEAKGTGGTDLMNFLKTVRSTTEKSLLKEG

Turning to `NS(=O)(=O)NCCSc1nsnc1/C(=N/O)Nc1ccc(F)c(Br)c1` [Example 47, N-(3-bromo-4-fluorophenyl)-N′-hydroxy-4-((2-(sulfamoylamino)ethyl)thio)-1,2,5-thiadiazole-3-carboximidamide], the IC50 in experiment [1] worked out at 290 nM; in experiment [2], 245 nM; in experiment [3] (setting [4]), 439 nM.
For `OCCCCSc1nonc1/C(=N/O)Nc1ccc(F)c(Br)c1` [Example 20, (Z)-N-(3-bromo-4-fluorophenyl)-N′-hydroxy-4-((4-hydroxybutyl)thio)-1,2,5-oxadiazole-3-carboximidamide] the same measures were 56 nM, 65.3 nM and 67.7 nM.
As for `ON=C(Nc1ccc(F)c(Br)c1)c1nonc1SCCN1CCNCC1` [Example 163, N-(3-bromo-4-fluorophenyl)-N′-hydroxy-4-[(2-piperazin-1-ylethyl)sulfanyl]-1,2,5-oxadiazole-3-carboximidamide], the IC50 in experiment [1] came out at 181 nM; in experiment [2] it was 405 nM; in experiment [3] (IDO1 Enzyme Assay, IC50, nM), 161 nM.
For the compound `O=S1(=O)CCC(Sc2nonc2/C(=N/O)Nc2ccc(F)c(Br)c2)CC1` [Example 82, N-(3-bromo-4-fluorophenyl)-4-[(1,1-dioxidotetrahydro-2H-thiopyran-4-yl)sulfanyl]-N′-hydroxy-1,2,5-oxadiazole-3-carboximidamide], the concentration for half-maximal inhibition (IC50) in experiment [1] turned out to be 78.1 nM; in experiment [2], 40.6 nM; in experiment [3] (setting [4]), 102 nM.
For `N#Cc1cc(N/C(=N\O)c2nonc2SCCNC(=O)[C@@H]2CC2(F)F)ccc1F` [Example 188, (1S)-N-[2-({4-[N-(3-cyano-4-fluorophenyl)-N′-hydroxycarbamimidoyl]-1,2,5-oxadiazol-3-yl}sulfanyl)ethyl]-2,2-difluorocyclopropanecarboxamide] the same measures were 87.7 nM, 173 nM and 87.9 nM.
With `ON=C(Nc1ccc(F)c(Br)c1)c1nonc1SCc1nccs1` [Example 157, N-(3-bromo-4-fluorophenyl)-N′-hydroxy-4-[(1,3-thiazol-2-ylmethyl)sulfanyl]-1,2,5-oxadiazole-3-carboximidamide], the concentration for half-maximal inhibition (IC50) was 104 nM in experiment [1]; 113 nM in experiment [2]; 63.8 nM in experiment [3] (IDO1 Enzyme Assay, IC50, nM).
In the same order, the values of `Cc1nc(CSc2nonc2C(=NO)Nc2ccc(F)c(Br)c2)no1` [Example 155, N-(3-bromo-4-fluorophenyl)-N′-hydroxy-4-{[(5-methyl-1,2,4-oxadiazol-3-yl)methyl]sulfanyl}-1,2,5-oxadiazole-3-carboximidamide] are 218 nM, 301 nM and 77.7 nM.
As for `OC[C@H](O)CSc1nonc1/C(=N/O)Nc1ccc(F)c(Cl)c1` [Example 170, N-(3-chloro-4-fluorophenyl)-4-{[(2S)-2,3-dihydroxypropyl]sulfanyl}-N′-hydroxy-1,2,5-oxadiazole-3-carboximidamide], the IC50 was determined as 132 nM in experiment [1], 110 nM in experiment [2] and 68.4 nM in experiment [3] (setting [4]).
For `CNC(=O)CCSc1nonc1/C(=N/O)Nc1ccc(F)c(Br)c1` [Example 70, 3-({4-[N-(3-bromo-4-fluorophenyl)-N′-hydroxycarbamimidoyl]-1,2,5-oxadiazol-3-yl}sulfanyl)-N-methylpropanamide] the same measures were 26.2 nM, 20.9 nM and 27.9 nM.
On to `CN1C(=O)NC[C@@H]1CSc1nonc1/C(=N/O)Nc1ccc(F)c(C#N)c1` [Example 150, N-(3-cyano-4-fluorophenyl)-N′-hydroxy-4-({[(4R)-3-methyl-2-oxoimidazolidin-4-yl]methyl}sulfanyl)-1,2,5-oxadiazole-3-carboximidamide], for which the IC50 in experiment [1] worked out at 422 nM; in experiment [2], 820 nM; in experiment [3] (setting [4]), 173 nM.
Regarding `CC#CCSc1nonc1C(=NO)Nc1ccc(F)c(Br)c1` [Example 161, N-(3-bromo-4-fluorophenyl)-4-(but-2-yn-1-ylsulfanyl)-N′-hydroxy-1,2,5-oxadiazole-3-carboximidamide], the IC50 in experiment [1] amounted to 188 nM; in experiment [2] it was 341 nM; in experiment [3] (IDO1 Enzyme Assay, IC50, nM), 169 nM.
On to `OCCSc1nonc1/C(=N/O)Nc1ccc(F)c(C(F)(F)F)c1` [Example 50, N-[4-fluoro-3-(trifluoromethyl)phenyl]-N′-hydroxy-4-[(2-hydroxyethyl)sulfanyl]-1,2,5-oxadiazole-3-carboximidamide], for which the half-maximal inhibitory concentration (IC50) in experiment [1] was determined as 67.5 nM; in experiment [2] it was 45.7 nM; in experiment [3] (setting [4]), 99.5 nM.
As for `N=C(N)NCCSc1nonc1/C(=N/O)Nc1ccc(F)c(Br)c1` [Example 56, N-(3-bromo-4-fluorophenvl)-4-[(2-carbamimidamidoethyl)sulfanyl]-N′-hydroxy-1,2,5-oxadiazole-3-carboximidamide], the IC50 in experiment [1] is 212 nM; in experiment [2] it was 94.3 nM; in experiment [3] (setting [4]) it was 41.5 nM.
In the same order, the values of `O=C(CSc1nonc1/C(=N/O)Nc1ccc(F)c(Br)c1)Nc1ccccc1` [Example 61, 2-({4-[N-(3-bromo-4-fluorophenyI)-N′-hydroxycarbamimidoyl]-1,2,5-oxadiazol-3-yl}sulfanyl)-N-phenylacetamide] are 171 nM, 77.5 nM and 94.3 nM.
For `CC(C)OC(=O)OCOP(=O)(O)CCSc1nonc1/C(=N/O)Nc1ccc(F)c(Br)c1` [Example 9, (Z)-(((2-((4-(N-(3-bromo-4-fluorophenyl)-N′-hydroxycarbamimidoyl)-1,2,5-oxadiazol-3-yl)thio)ethyl)(hydroxy)phosphoryl)oxy)methyl isopropyl carbonate] the same measures were 5120 nM, 5060 nM and 197 nM.
On to `CCc1cccc(N/C(=N\O)c2nonc2SCCNC(C)=O)c1` [Example 65, N-[2-({4-[N-(3-ethylphenyl)-N′-hydroxycarbamimidoyl]-1,2,5-oxadiazol-3-yl}sulfanyl)ethyl]acetamide], for which the IC50 is 74.5 nM in experiment [1], 52.6 nM in experiment [2] and 59.4 nM in experiment [3] (setting [4]).
In the same order, the values of `CCOC(=O)CCSc1nonc1/C(=N/O)Nc1ccc(F)c(Br)c1` [Example 13, Ethyl (Z)-3-((4-(N-(3-bromo-4-fluorophenyl)-N′-hydroxycarbamimidoyl)-1,2,5-oxadiazol-3-yl)thio)propanoate] are 4490 nM, 6120 nM and 86.1 nM.
In the same order, the values of `CC(CO)(CO)NC(=O)CSc1nonc1/C(=N/O)Nc1ccc(F)c(Br)c1` [Example 174, 2-({4-[N-(3-bromo-4-fluorophenyl)-N′-hydroxycarbamimidoyl]-1,2,5-oxadiazol-3-yl}sulfanyl)-N-[2-hydroxy-1-(hydroxymethyl)-1-methylethyl]acetamide] are 113 nM, 63.6 nM and 82.7 nM.
In the same order, the values of `CC(=O)NCCSc1nonc1/C(=N/O)Nc1cc(Br)c(F)cc1F` [Example 58, N-[2-({4-[N-(5-bromo-2,4-difluorophenyl)-N′-hydroxycarbamimidoyl]-1,2,5-oxadiazol-3-yl}sulfanyl)ethyl]acetamide] are 290 nM, 154 nM and 136 nM.
On to `CC(=O)N[C@@H](C)CSc1nonc1/C(=N/O)Nc1ccc(F)c(C#N)c1` [Example 180, N-[(1S)-2-({4-[N-(3-cyano-4-fluorophenyl)-N′-hydroxycarbamimidoyl]-1,2,5-oxadiazol-3-yl}sulfanyl)-1-methylethyl]acetamide], for which the IC50 in experiment [1] amounted to 309 nM; in experiment [2], 426 nM; in experiment [3] (setting [4]) it was 196 nM.
As to `OC[C@@H](O)CSc1nonc1/C(=N/O)Nc1ccc(F)c(C(F)(F)F)c1` [Example 165, 4-{[(2R)-2,3-dihydroxypropyl]sulfanyl}-N-[4-fluoro-3-(trifluoromethyl)phenyl]-N′-hydroxy-1,2,5-oxadiazole-3-carboximidamide], the IC50 in experiment [1] was determined as 130 nM; in experiment [2], 159 nM; in experiment [3] (setting [4]), 126 nM.
In the same order, the values of `O=C(NCCSc1nonc1C(=NO)Nc1ccc(F)c(Br)c1)NC1CCCC1` [Example 129, N-(3-bromo-4-fluorophenyI)-4-({2-[(cyclopentylcarbamoyl)amino]ethyl}sulfanyl)-N′-hydroxy-1,2,5-oxadiazole-3-carboximidamide] are 258 nM, 702 nM and 35.3 nM.
In the same order, the values of `O=C(CSc1nonc1/C(=N/O)Nc1ccc(F)c(Br)c1)N[C@H]1C[C@@H](O)[C@@H](O)C1` [Example 177, 2-({4-[N-(3-bromo-4-fluorophenyl)-N′-hydroxycarbamimidoyl]-1,2.5-oxadiazol-3-yl}sulfanyl)-N-[(1r,3R,4S)-3,4-dihydroxycyclopentyl]acetamide] are 411 nM, 469 nM and 97.3 nM.
`CS(=O)(=O)NCCSc1nonc1/C(=N/O)Nc1ccc(F)c(C(F)F)c1` [Example 183, N-[3-(difluoromethyl)-4-fluorophenyl]-N′-hydroxy-4-({2-[(methylsulfonyl)amino]ethyl}sulfanyl)-1,2,5-oxadiazole-3-carboximidamide]: the IC50 in experiment [1] is 25.6 nM; in experiment [2], 58.2 nM; in experiment [3] (setting [4]) it was 52.5 nM.
For `O=P(O)(O)CCSc1nonc1/C(=N/O)Nc1ccc(F)c(Br)c1` [Example 8, (Z)-(2-((4-(N-(3-Bromo-4-fluorophenyl)-N′-hydroxycarbamimidoyl)-1,2,5-oxadiazol-3-yl)thio)ethyl)phosphonic acid] the same measures were 6360 nM, 7950 nM and 107 nM.
